Laboratory results reported in ChEMBL document CHEMBL5257044, “Arylnaphthalene Lignans with Anti-SARS-CoV-2 and Antiproliferative Activities from the Underground Organs of Linum austriacum and Linum perenne” (J Nat Prod, 2023).

Assays:
SARS-CoV-2 [1] = experiment: Antiviral activity against SARS-COV2 EPI_ISL_1172022 infected in african green monkey Vero E6 cells assessed as inhibition of viral replication incubated for 48 hrs by RT-qPCR analysis; format: functional, organism-based; details: Severe acute respiratory syndrome coronavirus 2, EPI_ISL_1172022, Vero C1008, 48 h
A2058 = experiment: Cytotoxicity against human A2058 cells incubated for 24 hrs by AlamarBlue staining based analysis; format: functional, cell-based; details: A2058, 24 h
Calu-1 = experiment: Cytotoxicity against human Calu-1 cells incubated for 24 hrs by AlamarBlue staining based analysis; format: functional, cell-based; details: Calu-1, 24 h
HT-29 = experiment: Cytotoxicity against human HT-29 cells incubated for 24 hrs by AlamarBlue staining based analysis; format: functional, cell-based; details: HT-29, 24 h
A549 [2] = experiment: Cytotoxicity against human A549 cells incubated for 24 hrs by AlamarBlue staining based analysis; format: functional, cell-based; details: A549, 24 h
[3] = Cytotoxicity against human U87 cells incubated for 24 hrs by AlamarBlue staining based analysis; format: functional, cell-based, U-87MG ATCC; details: U-87 MG
MONO-MAC-6 = experiment: Cytotoxicity against human MONO-MAC-6 cells incubated for 24 hrs by AlamarBlue staining based analysis; format: functional, cell-based; details: MONO-MAC-6, 24 h
HepG2 = experiment: Cytotoxicity against human HepG2 cells incubated for 24 hrs by AlamarBlue staining based analysis; format: functional, cell-based; details: HepG2, 24 h
NCI-H838 = experiment: Cytotoxicity against human NCI-H838 cells incubated for 24 hrs by AlamarBlue staining based analysis; format: functional, cell-based; details: NCI-H838, 24 h
PC-3 = experiment: Cytotoxicity against human PC-3 cells incubated for 24 hrs by AlamarBlue staining based analysis; format: functional, cell-based; details: PC-3, 24 h
EBC-1 = experiment: Cytotoxicity against human EBC-1 cells incubated for 24 hrs by AlamarBlue staining based analysis; format: functional, cell-based; details: EBC-1, 24 h
SARS-CoV-2 [4] = experiment: Antiviral activity against SARS-COV2 EPI_ISL_1172022 infected in african green monkey Vero E6 cells assessed as log reduction in viable virus at 12.5 uM incubated for 48 hrs by RT-qPCR analysis; format: functional, Severe acute respiratory syndrome coronavirus 2
RPMI-8226 = experiment: Cytotoxicity against human RPMI-8226 cells assessed as reduction in cell viability measured after 72 hrs by MTT assay; format: functional, cell-based; details: RPMI-8226, 72 h
BGC-823 = experiment: Cytotoxicity against human BGC-823 cells assessed as reduction in cell viability measured after 4 days by MTT colorimetric assay; format: functional, cell-based; details: BGC-823, 96 h
A549 [5] = experiment: Cytotoxicity against human A549 cells incubated for 24 hrs by MTS assay; format: functional, cell-based; details: A549, 24 h
ECa-109 cell line = experiment: Antiproliferative activity against human Eca-109 cells measured after 2 days by CCK-8 method; format: functional, cell-based; details: ECa-109, 48 h
A549 [6] = experiment: Cytotoxicity against human A549 cells measured after 3 days by MTT assay; format: functional, cell-based; details: A549, 72 h
TE-1 = experiment: Antiproliferative activity against human TE-1 cells measured after 2 days by CCK-8 method; format: functional, cell-based; details: TE-1, 48 h
SARS-CoV-2 [7] = experiment: Antiviral activity against SARS-COV2 infected in african green monkey Vero E6 cells assessed as inhibition of viral replication incubated for 48 hrs by plague assay; format: functional, organism-based; details: Severe acute respiratory syndrome coronavirus 2, Vero C1008, 48 h
[8] = Cytotoxicity against African green monkey Vero E6 cells incubated for 48 hrs by CCK-8 assay; format: toxicity, cell-based, Vero C1008; details: African green monkey (Chlorocebus sabaeus)

CCN(CC)CCCC(C)Nc1ccnc2cc(Cl)ccc12 (configuration not stated) [CHLOROQUINE] gave an IC50 (SARS-CoV-2 [1]) of 50.2 µM.

COc1cc2cc(COC(=O)CC(=O)O)c(C(=O)O[C@@H]3O[C@H](COC(=O)CC(C)(O)CC(=O)O)[C@@H](O)[C@H](O)[C@H]3O)c(-c3ccc4c(c3)OCO4)c2cc1OC (some centres not stated) showed an IC50 (A2058) of 2.4 µM, an IC50 (Calu-1) of 67 µM and an IC50 (HT-29) of 19.9 µM. The IC50 (SARS-CoV-2 [1]) was over 100 µM, the IC50 (A549 [2]) was 26.3 µM and the IC50 [3] was over 100 µM. The IC50 (MONO-MAC-6) was 7.1 µM, the IC50 (HepG2) was over 100 µM and the IC50 (NCI-H838) was 16 µM. It also gave an IC50 (PC-3) of 3.2 µM and an IC50 (EBC-1) of 19.2 µM.

COc1cc2cc3c(c(-c4ccc5c(c4)OCO5)c2cc1OC)C(=O)OC3 showed an IC50 (A2058) of 8.9 µM, an IC50 (Calu-1) of 18.5 µM and an IC50 (HT-29) of 5.9 µM. The “log(activity)” value (SARS-CoV-2 [4]) was over 3, the IC50 (RPMI-8226) was 0.17 µM and the IC50 (SARS-CoV-2 [1]) was over 100 µM. For the same molecule, the IC50 (A549 [2]) was 11.4 µM, the IC50 [3] was 21.6 µM and the IC50 (MONO-MAC-6) was 2.5 µM. For the same molecule, the IC50 (BGC-823) was 0.18 µM, the IC50 (HepG2) was 16.8 µM and the IC50 (NCI-H838) was 11 µM. It also gave an IC50 (PC-3) of 5.7 µM and an IC50 (EBC-1) of 63.2 µM.

CC(C)C(=O)OC[C@H]1O[C@@H](n2cc/c(=N\O)[nH]c2=O)[C@H](O)[C@@H]1O [MOLNUPIRAVIR] gave an IC50 (SARS-CoV-2 [1]) of over 100 µM.

COc1cc([C@@H]2c3cc4c(cc3[C@@H](O[C@@H]3O[C@@H]5CO[C@@H](C)O[C@H]5[C@H](O)[C@H]3O)[C@H]3COC(=O)[C@H]23)OCO4)cc(OC)c1O [ETOPOSIDE] gave an IC50 (A2058) of 8.9 µM, an IC50 (Calu-1) of over 100 µM and an IC50 (HT-29) of 18.5 µM. For the same molecule, the IC50 (A549 [2]) was over 100 µM, the IC50 [3] was 27 µM and the IC50 (MONO-MAC-6) was 2.2 µM. It also gave an IC50 (HepG2) of 20.9 µM, an IC50 (NCI-H838) of over 100 µM and an IC50 (PC-3) of 8 µM. It also gave an IC50 (EBC-1) of 15.7 µM.

Molecule COc1cc2cc(COC(=O)CC(=O)O)c(C(=O)O)c(-c3ccc4c(c3)OCO4)c2cc1OC has an IC50 (A2058) of 25.1 µM, an IC50 (Calu-1) of over 100 µM and an IC50 (HT-29) of over 100 µM. The IC50 (SARS-CoV-2 [1]) was over 100 µM, the IC50 (A549 [2]) was over 100 µM and the IC50 [3] was over 100 µM. The IC50 (MONO-MAC-6) was 70.1 µM, the IC50 (HepG2) was over 100 µM and the IC50 (NCI-H838) was over 100 µM. For the same molecule, the IC50 (PC-3) was 32.8 µM and the IC50 (EBC-1) was 16 µM.

For CC(=O)Oc1ccccc1C(=O)Nc1ncc([N+](=O)[O-])s1 [NITAZOXANIDE], the IC50 (SARS-CoV-2 [1]) was 82.7 µM.

For COc1cc2c(O)c3c(c(-c4ccc5c(c4)OCO5)c2cc1OC)C(=O)OC3 [DIPHYLLIN], the IC50 (A549 [5]) was 2.02 µM, the IC50 (A2058) was 2.6 µM and the IC50 (Calu-1) was 31.8 µM. For the same molecule, the IC50 (ECa-109 cell line) was 0.21 µM, the IC50 (HT-29) was 19.5 µM and the “log(activity)” value (SARS-CoV-2 [4]) was over 3. It also gave an IC50 (SARS-CoV-2 [1]) of over 100 µM, an IC50 (A549 [2]) of 8.8 µM and an IC50 [3] of 26.1 µM. The IC50 (A549 [6]) was 24 µM, the IC50 (MONO-MAC-6) was 3.9 µM and the IC50 (HepG2) was 21.6 µM. It also gave an IC50 (NCI-H838) of 16 µM, an IC50 (TE-1) of 0.28 µM and an IC50 (SARS-CoV-2 [7]) of 1.92 µM. The IC50 (PC-3) was 3.8 µM, the IC50 (EBC-1) was 14.8 µM and the IC50 at 48 h [8] was over 100 µM.
